Data from PubChem BioAssay (NCI).
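Briefly, cells in 96-well plates were exposed to five compound concentrations for 48 h, and endpoints were estimated by linear interpolation. GI50 is the concentration that inhibits growth by half. TGI marks complete inhibition of growth.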

Experiments:
Assay in all cases: growth of human tumour cells (NCI), 48 h
U251 CNS = tested on: U251 CNS
SF-295 CNS = tested on: SF-295 CNS
CAKI-1 renal = tested on: CAKI-1 renal
HT29 colon = tested on: HT29 colon
EKVX NSCLC = tested on: EKVX NSCLC
HS 578T breast = tested on: HS 578T breast
LOX IMVI melanoma = tested on: LOX IMVI melanoma
HCT-116 colon = tested on: HCT-116 colon
IGROV1 ovarian = tested on: IGROV1 ovarian
RXF 393 renal = tested on: RXF 393 renal

| Structure (SMILES) | GI50 (U251 CNS) [µM] | TGI (U251 CNS) [µM] | GI50 (SF-295 CNS) [µM] | TGI (SF-295 CNS) [µM] | GI50 (CAKI-1 renal) [µM] | TGI (CAKI-1 renal) [µM] | GI50 (HT29 colon) [µM] | TGI (HT29 colon) [µM] | GI50 (EKVX NSCLC) [µM] | TGI (EKVX NSCLC) [µM] | GI50 (HS 578T breast) [µM] | TGI (HS 578T breast) [µM] | GI50 (LOX IMVI melanoma) [µM] | TGI (LOX IMVI melanoma) [µM] | GI50 (HCT-116 colon) [µM] | TGI (HCT-116 colon) [µM] | GI50 (IGROV1 ovarian) [µM] | TGI (IGROV1 ovarian) [µM] | GI50 (RXF 393 renal) [µM] | TGI (RXF 393 renal) [µM] |
| --- | --- | --- | --- | --- | --- | --- | --- | --- | --- | --- | --- | --- | --- | --- | --- | --- | --- | --- | --- | --- |
| COC(=O)c1cc(/C=C/c2ccc(S(N)(=O)=O)cc2)ccc1O | 18.8 | > 100 | 26.5 | > 100 | 28.6 | > 100 | 64.5 | > 100 | 29.3 | > 100 | 29.7 | 72.1 | 30 | > 100 | 20 | > 100 | 25.7 | > 100 | 43.4 | > 100 |
| CCN(CC)CCNC(=O)c1ccc(C)c(OCc2ccccc2)c1[N+](=O)[O-] | – | > 84.1 | – | 55.8 | – | > 71.1 | – | 38.7 | – | > 100 | – | > 63.6 | – | 49.9 | – | 47.8 | – | > 100 | – | > 91.3 |
| Cc1ccc(Nc2nnc(-c3ccc4c(c3)OCO4)o2)c(C)c1 | – | > 100 | – | > 100 | – | > 100 | – | > 100 | – | > 100 | – | > 100 | – | > 100 | – | > 100 | – | > 100 | – | > 100 |
| CCCCCc1ccc(S(=O)(=O)Nc2cc(-c3csc(NC(C)=O)n3)ccc2N2CCN(C)CC2)cc1 | 3.78 | 8.93 | 4.9 | 9.59 | 4.84 | 9.48 | 1.99 | 8.29 | 5.65 | 10.7 | 5.12 | 13.4 | 0.648 | 1.35 | 1.11 | 4.43 | 4.67 | 9.46 | 3.66 | 8 |
| Nc1nc(N)nc(CCCc2nc(N)nc(N)n2)n1 | – | > 100 | – | > 100 | – | > 100 | – | > 100 | – | > 100 | – | > 100 | – | > 100 | – | > 100 | – | > 100 | – | > 100 |
| NC(=S)N/N=C/c1cc(-c2cccc(N)c2)ccn1 | 0.783 | > 38.8 | 1.66 | 31 | 0.972 | 10.3 | 3.72 | > 100 | 2.6 | > 100 | 0.585 | > 57.4 | 2.09 | 34.6 | 1.99 | 27.3 | 3.05 | > 24.5 | 2.32 | 42.4 |
| CC1C(=O)OC2CC[N+]3([O-])CC=C(COC(=O)C(C)(O)C1(C)O)C23 (stereo unspecified) | – | > 100 | – | > 100 | – | > 100 | – | > 100 | – | > 100 | – | > 100 | – | > 100 | – | > 100 | – | > 100 | – | > 100 |
| Nc1ccccc1SC1CC(=O)N(c2ccc(Cl)c(Cl)c2)C1=O (stereo unspecified) | 21.1 | > 100 | 10.1 | > 100 | 21.7 | > 100 | 42.1 | > 100 | 17.4 | > 100 | 12.5 | 49.5 | 31.7 | > 100 | 24.2 | > 100 | 31 | > 100 | 14.2 | 42.8 |
| Cc1nn(C(=O)c2ccc(Cl)cc2)c2c1C(c1ccc(O)cc1)SC(N)=N2 (stereo unspecified) | – | > 10 | – | > 10 | – | > 10 | – | > 10 | – | > 10 | – | > 10 | – | > 10 | – | > 10 | – | > 10 | – | > 10 |
| Nc1ccc2[nH]cc(CCC(=O)O)c2c1 | – | > 100 | – | > 100 | – | > 100 | – | > 100 | – | > 100 | – | > 100 | – | > 100 | – | > 100 | – | > 100 | – | > 100 |
| COC(C(=O)[C@@H](O)[C@@H](C)O)[C@@H]1Cc2cc3cc(O[C@H]4C[C@@H](O[C@H]5C[C@@H](O)[C@H](O)C(C)O5)[C@H](O)C(C)O4)c(C)c(O)c3c(O)c2C(=O)[C@H]1O[C@H]1C[C@@H](O[C@H]2C[C@@H](O[C@H]3C[C@@H](O)[C@H](OC)C(C)O3)[C@@H](O)C(C)O2)[C@H](O)C(C)O1 (stereo partly specified) | – | > 33.3 | 0.0141 | > 33.3 | 0.601 | > 33.3 | – | 0.131 | – | > 33.3 | 0.019 | > 33.3 | 0.00894 | 0.0289 | 0.0112 | > 33.3 | 0.0239 | > 33.3 | 0.034 | 0.139 |
| COc1ccc2c(c1)C(C)Cc1c(ncnc1-n1cnc3cc(C)ccc31)N2C (stereo unspecified) | 0.148 | 11.6 | 0.0317 | 11 | 0.0604 | 12.6 | 0.174 | 0.611 | 0.25 | 23.2 | 0.0686 | 31.7 | 0.0642 | 14.5 | 0.0736 | 14.9 | 0.254 | 14.5 | 0.0305 | 25.3 |
| CCOC(CN(C)C(=S)Nc1cccc2ccccc12)OCC | – | > 10 | – | > 10 | – | > 10 | – | > 10 | – | > 10 | – | > 10 | – | > 10 | – | > 10 | – | > 10 | – | > 10 |
| O=C(CSC(c1ccccc1)c1ccccc1)N/N=C/c1ccco1 | 1.77 | 3.21 | 2.4 | 12.5 | 4.7 | 23.2 | 18.7 | 48.3 | 2.44 | > 5.19 | 2.23 | 5.82 | 1.48 | 5.2 | 1.46 | 2.98 | – | 1.41 | 1.25 | 3.32 |
| COc1ccc2c(Oc3ccc(NC(=O)c4c(C)n(CC(C)(C)O)n(-c5ccccc5)c4=O)nc3)ccnc2c1 | 13.1 | > 100 | 0.654 | 12.7 | 3.33 | > 27.7 | 21.6 | > 91.1 | 23.3 | > 80.3 | 21.1 | > 100 | 10.9 | > 100 | 8.55 | > 64.3 | 12.3 | > 100 | 3.38 | 41.5 |
